Test results: US6147076A, “Analogues of N-acetylardeemin, method of preparation and uses thereof” (priority 1996, dated 2000)
Several values for one entry are separate records, joined by “and”; a condition that tells them apart may be missing. Equal values may be shown once. Read-outs that look alike come from different tables or passages of the source.

Assays:
CCRF-CEM cells [1] = experiment: Influx of [3H]VP-16 in CCRF-CEM cells; assay type: cell-based, human; settings: Homo sapiens, CCRF-CEM, 0.5 h; 20 μM, 30 min, 37° C.; read-out: increase of VP-16 accumulation
DC-3F/ADII cells [2] = tested on: DC-3F/ADII cells
CCRF-CEM/VLB-100 cells = experiment: Intracellular accumulation of [3H]vinblastine in CCRF-CEM/VLB-100 cells; assay type: cell-based, human; settings: 30 μM
Method: (§1) *Cells were preloaded with [^3 H]
(§2) times (or without wash) with 100 ml cold medium to remove extracellular
(§3) with or without a reverse prenyl compound or an MDRreversing agent. Cells
(§4) were then separated from radioactive medium by microfuge oillayer method.
(§5) Extracellular space counts carried down # by cells (^3 HInulin space
(§6) were subtracted from the total radioactive counts.

CCRF-CEM cells [3] = experiment: Accumulation of VP-16 in CCRF-CEM cells preloaded with [3H]VP-16; settings: Homo sapiens, 0.5 h, read-out: increase of intracellular accumulation of VP-16
CCRF-CEM/VBL100 cells [4] = settings: ccrf-cem/vbl100 cells
CCRF-CEM cells [5] = experiment: Intracellular accumulation of [3H]vinblastine in CCRF-CEM cells; assay type: cell-based, human; settings: 30 μM
Method: as §1, §2, §3, §4, §5, §6

DC-3F hamster lung cells [6] = settings: dc-3f cells
CCRF/VM-1 cells = experiment: Intracellular accumulation of VP-16 in CCRF/VM-1 cells; settings: Homo sapiens, 0.5 h, read-out: increase of VP-16 accumulation
CCRF-CEM/VM-1 cells = experiment: Cytotoxicity toward VM-26-resistant CCRF-CEM/VM-1 cells (mutated Topo II gene); assay type: cell-based, human
CCRF-CEM cells [7] = tested on: CCRF-CEM cells
DC-3F hamster lung cells [8] = experiment: Cytotoxicity toward DC-3F hamster lung cells
CCRF-CEM cells [9] = experiment: Cytotoxicity / growth inhibition of CCRF-CEM leukemic cells; settings: Homo sapiens
P388/DX tumor = experiment: Combination therapy of adriamycin & 5-N-acetyl-ardeemin or verapamil in B6D2F1 mice bearing P388/DX tumor; settings: for Days survived: individual mice 1-5, listed as Adr.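 As to all read-outs here: male BDF mice implanted intraperitoneally with P388/DX cells, 10^6 per mouse, dosed from day 1 on a QDX4, QWX2 schedule, five mice per dose group.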
P388/O tumor = experiment: Combination therapy of adriamycin & 5-N-acetyl-ardeemin or verapamil in B6D2F1 mice bearing P388/O tumor; settings: for Days survived: individual mice 1-5, listed as Adr;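 as to all read-outs here: male BDF mice carrying P388/O given intraperitoneally, dosing begun on day 1 on a QDX4, QWX2 schedule, five animals per dose level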
DC-3F/ADII cells [10] = experiment: cells; settings: Mesocricetus auratus, DC3F
P388/0 = experiment: Survival time evaluation for BDF mice bearing P388/0; settings: for survival time: individual mice
P388 leukemic cells = experiment: Drug combination of adriamycin and 5-N-acetyl-ardeemin against P388 cell growth (XTT); settings: Mus musculus, P388, drug alone
P388/DX = experiment: Survival time evaluation for BDF mice bearing P388/DX; settings: for survival time: individual mice
P388/DX leukemic cells = experiment: Drug combination of adriamycin and 5-N-acetyl-ardeemin against P388/DX cell growth (XTT); assay type: cell-based; settings: drug alone
Text: | microplate, 25,000 cell/well, N = 2.

P388/0 tumor [11] = experiment: Combination therapy of adriamycin, vinblastine and des-Me-N-acetyl-ardeemin in B6D2F1 mice bearing P388/0 tumor; settings: for Days survived: individual mice 1-5, listed as Adr.
HCT116(VM)46 cells = experiment: Cytotoxicity (XTT, 72 hr) in multidrug resistant HCT116(VM)46 cells; assay type: cell-based; settings: IC50 HCT116(VM)46 / HCT116; 4320 min
Method: All drug exposures were for 72 hr and cytotoxicity was measured by XTT tetrazolium dye assay.

P388/0 tumor [12] = settings: DMNAA 50.0 mg/kg
DC-3F/ADX cells = experiment: Cytotoxicity toward DC-3F/ADX cells; assay type: cell-based, hamster
CCRF-CEM/VBL100 cells [13] = experiment: cells; settings: Homo sapiens, read-out: IC50 of reversing agent, Table 6B, CCRF-CEM/VBL

C=CC(C)(C)C12CC3c4nc5ccccc5c(=O)n4C(C)C(=O)N3C1Nc1ccccc12 (stereo not shown) [Ardeemin]
activation at 20 µM (CCRF-CEM cells [1]): 33%
IC90 (DC-3F/ADII cells [2]; dc-3f/adii cells): 24.6 µM
[3H]vinblastine accumulation (CCRF-CEM/VLB-100 cells; washed): 5.42 fmole/10^3 cells
[3H]vinblastine accumulation (CCRF-CEM/VLB-100 cells; without wash): 22.84 fmole/10^3 cells
fold induction at 20 µM (CCRF-CEM cells [3]): 3.1
IC90 (CCRF-CEM/VBL100 cells [4]): 27.9 µM
[3H]vinblastine accumulation (CCRF-CEM cells [5]; washed): 29.94 fmole/10^3 cells
[3H]vinblastine accumulation (CCRF-CEM cells [5]; without wash): 34.68 fmole/10^3 cells
IC80 (DC-3F hamster lung cells [6]): 10.2 µM
IC90 (DC-3F hamster lung cells [6]): 30.9 µM
fold induction at 20 µM (CCRF/VM-1 cells): 1.51
IC90 (CCRF-CEM/VM-1 cells; ccrf-cem/vm-1 cells): 88.8 µM
IC90 (CCRF-CEM cells [7]): 65.7 µM
IC50 (DC-3F hamster lung cells [8]; Mesocricetus auratus, DC3F, relative cytotoxicity, DC-3F): 10.2 µM
IC50 (CCRF-CEM cells [9]; human leukemic CCRF-CEM cells): 20.8 µM

COc1cccc2c1C(=O)c1c(O)c3c(c(O)c1C2=O)C[C@@](O)(C(=O)CO)C[C@@H]3O[C@H]1C[C@H](N)[C@H](O)[C@H](C)O1 [Adriamycin, adriamycin]
% ILS (P388/DX tumor; Adr. 0.5 mg/kg): +49%
MST (P388/DX tumor; Adr. 0.5 mg/kg): 11.3 days
Days survived (P388/DX tumor; Adr. 0.5 mg/kg): 7.5 days and 10.5 days and 12.25 days and 14.0 days
% ILS (P388/DX tumor; Adr. 1.0 mg/kg): +75%
MST (P388/DX tumor; Adr. 1.0 mg/kg): 13.25 days
Days survived (P388/DX tumor; Adr. 1.0 mg/kg): 11.5 days and 12.25 days and 13.25 days and 16.0 days
MST (P388/DX tumor; Adr. 2.0 mg/kg): 15.55 days
Days survived (P388/DX tumor; Adr. 2.0 mg/kg): 14.0 days and 15.0 days and 15.25 days and 16.5 days and 17.0 days
% ILS (P388/DX tumor; Adr. 3.0 mg/kg): +130%
MST (P388/DX tumor; Adr. 3.0 mg/kg): 17.4 days
deaths of toxicity (P388/DX tumor; Adr. 3.0 mg/kg, day 14): Two mice died of toxicity of drugs
Days survived (P388/DX tumor; Adr. 3.0 mg/kg): 14.0 days and 17.5 days and 21.0 days
% ILS (P388/O tumor; Adr 0.5 mg/kg): +128%
MST (P388/O tumor; Adr 0.5 mg/kg): 17.3 days
Days survived (P388/O tumor; Adr 0.5 mg/kg): 15.5 days and 16.0 days and 17.0 days and 18.0 days and 20.0 days
% ILS (P388/O tumor; Adr 1.0 mg/kg): +152%
MST (P388/O tumor; Adr 1.0 mg/kg): 19.1 days
Days survived (P388/O tumor; Adr 1.0 mg/kg): 16.0 days and 19.0 days and 20.5 days and 21.0 days
% ILS (P388/O tumor; Adr 2.0 mg/kg): +178%
MST (P388/O tumor; Adr 2.0 mg/kg): 21.1 days
Days survived (P388/O tumor; Adr 2.0 mg/kg): 19.0 days and 20.5 days and 21.0 days and 22.5 days
% ILS (P388/O tumor; Adr 3.0 mg/kg): +181%
MST (P388/O tumor; Adr 3.0 mg/kg): 19.8 days
deaths of toxicity (P388/O tumor; Adr 3.0 mg/kg, day 12.5 and 15): Two mice died of toxicity of drugs
Days survived (P388/O tumor; Adr 3.0 mg/kg): 12.5 days and 16.0 days and 20.5 days and 24.6 days and 26.5 days
IC50 (DC-3F/ADII cells [10]; read-out: IC50 for inhibiting cell growth, Table 7, DC-3F/SDII): 0.38 µM
% ILS (P388/0; adriamycin 0.333 mg/kg): 85%
MST (P388/0; adriamycin 0.333 mg/kg): 13.75
survival time (P388/0; adriamycin 0.333 mg/kg): 12.25 and 13.0 and 14.25 and 15.5
% ILS (P388/0; adriamycin 1.0 mg/kg): 129%
MST (P388/0; adriamycin 1.0 mg/kg): 17.0
survival time (P388/0; adriamycin 1.0 mg/kg): 14.25 and 15.5 and 18.0 and 20.25
% ILS (P388/0; adriamycin 3.0 mg/kg): 145%
MST (P388/0; adriamycin 3.0 mg/kg): 18.19
survival time (P388/0; adriamycin 3.0 mg/kg): 16.0 and 17.25 and 19.25 and 20.25
IC50 (P388 leukemic cells): 0.228 µM
% ILS (P388/DX; adriamycin 0.333 mg/kg): 24%
MST (P388/DX; adriamycin 0.333 mg/kg): 9.0
survival time (P388/DX; adriamycin 0.333 mg/kg): 8.0 and 8.5 and 9.5 and 10.0
% ILS (P388/DX; adriamycin 1.0 mg/kg): 37%
MST (P388/DX; adriamycin 1.0 mg/kg): 9.75
survival time (P388/DX; adriamycin 1.0 mg/kg): 9.0 and 10.0 and 10.25 and 10.5
% ILS (P388/DX; adriamycin 3.0 mg/kg): 48%
MST (P388/DX; adriamycin 3.0 mg/kg): 10.75
survival time (P388/DX; adriamycin 3.0 mg/kg): 10.0 and 11.5 and 12.25
IC50 (P388/DX leukemic cells): 2.14 µM
IC50 (DC-3F hamster lung cells [8]; Mesocricetus auratus, DC3F, read-out: IC50 for inhibiting cell growth, Table 7, DC-3F): 0.03 µM
% ILS (P388/0 tumor [11]; Adr. 3.0 mg/kg): +63%
MST (P388/0 tumor [11]; Adr. 3.0 mg/kg): 13.60 days
Days survived (P388/0 tumor [11]; Adr. 3.0 mg/kg): 10.5 days and 13.5 days and 14.5 days and 15.0 days
% ILS (P388/0 tumor [11]; Adr. 5.0 mg/kg): +81%
MST (P388/0 tumor [11]; Adr. 5.0 mg/kg): 15.10 days
Days survived (P388/0 tumor [11]; Adr. 5.0 mg/kg): 10.5 days and 14.0 days and 16.0 days and 17.0 days and 18.0 days

CC(=O)O[C@H]1C(=O)[C@@]2(C)[C@H]([C@H](OC(=O)c3ccccc3)[C@]3(O)C[C@H](OC(=O)[C@H](O)[C@@H](NC(=O)c4ccccc4)c4ccccc4)C(C)=C1C3(C)C)[C@]1(OC(C)=O)CO[C@@H]1C[C@@H]2O [paclitaxel]
R/S ratio (HCT116(VM)46 cells): 132

C=CC(C)(C)C12CC3c4nc5ccccc5c(=O)n4CC(=O)N3C1N(C(C)=O)c1ccccc12 (stereo not shown) [5-N-Ac-8-desmethyl-Ardeemin, N-Acetyl-8-desmethyl-ardeemin]
(B)/(A) (DC-3F/ADII cells [2]; IC50 ratio DC-3F/ADII to DC-3F, * collaterally sensitive): 0.50 X
% ILS (P388/0 tumor [12]): +1%
MST (P388/0 tumor [12]): 8.40 days
[3H]vinblastine accumulation (CCRF-CEM/VLB-100 cells; washed): 7.66 fmole/10^3 cells
[3H]vinblastine accumulation (CCRF-CEM/VLB-100 cells; without wash): 33.53 fmole/10^3 cells
IC50 (DC-3F/ADII cells [10]; read-out: IC50 (B)): 14.6 µM
[3H]vinblastine accumulation (CCRF-CEM cells [5]; washed): 29.33 fmole/10^3 cells
[3H]vinblastine accumulation (CCRF-CEM cells [5]; without wash): 33.13 fmole/10^3 cells
IC50 (DC-3F/ADX cells; DC3F/ADX, DC-3F/ADX): 3.98 µM
(C)/(A) (DC-3F/ADX cells; IC50 ratio DC-3F/ADX to DC-3F, * collaterally sensitive): 0.14 X
IC50 (CCRF-CEM/VM-1 cells; Homo sapiens, CCRF-CEM, Table 6B, CCRF-CEM/VM-1, read-out: IC50 of reversing agent): 35.8 µM
IC50 (CCRF-CEM/VBL100 cells [13]): 32.9 µM
IC50 (DC-3F hamster lung cells [8]; Mesocricetus auratus, DC3F, read-out: IC50 (A), mean ± spread, mean of the determinations): 29.3 ± 8.38 µM
IC50 (DC-3F hamster lung cells [8]; Mesocricetus auratus, DC3F, read-out: IC50 (A), single determinations): 37.7 µM
IC50 (DC-3F hamster lung cells [8]; read-out: IC50 (A), single determinations): 20.9 µM
IC50 (CCRF-CEM cells [9]; read-out: IC50 of reversing agent, Table 6B, CCRF-CEM): 22.7 µM
